Test results published in US11053204B2, “Pyrimidinyloxy benzene derivatives as herbicides” (FMC Corporation, priority 2015, dated 2021).

Key:
Assay type in all cases: in vivo
[1] = test system: ragweed (common ragweed, Ambrosia elatior); experiment: Test C preemergence, plant response rating; conditions: Preemergence
How it was run: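 Visual injury score, 0 = no effect, 100 = complete control, assigned against untreated controls after 13 to 15 d in the greenhouse. Compounds were applied in a surfactant-containing non-phytotoxic solvent mix, preemergence to seeded loam/sand or silt loam soil, or postemergence to 1- to 4-leaf plants (2 to 18 cm).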

[2] = test system: giant foxtail (Setaria faberii); experiment: Test A preemergence, visual injury rating
How it was run: (§1)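 Scoring: eye-based comparison with untreated controls, 0 for no effect through 100 for complete control, at about day 10. Treatments: directed soil spray preemergence; foliar spray postemergence on 2–10 cm plants at the one- to two-leaf stage. Medium: loam soil with sand.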

kochia (Kochia scoparia) [3] = experiment: Test A preemergence, visual injury rating
How it was run: as §1

[4] = test system: ragweed (common ragweed, Ambrosia elatior); experiment: Test A preemergence, visual injury rating
How it was run: as §1

[5] = test system: pigweed (Amaranthus retroflexus); experiment: Test A preemergence, visual injury rating
How it was run: as §1

[6] = test system: barnyardgrass (Echinochloa crus-galli); experiment: Test A preemergence, visual injury rating; conditions: for Plant response rating, Barnyardgrass: 31 g ai/ha, 0 to 100 scale, 0 no effect, 100 complete control
How it was run: as §1

[7] = test system: Italian ryegrass (Lolium multiflorum); experiment: Test A preemergence, visual injury rating
How it was run: as §1

rice (Oryza sativa) = experiment: Test B flooded paddy test, plant response rating; conditions: 250 g ai/ha, Flood, scale of 0 to 100 where 0 is no effect and 100 is complete control, 13 to 15 days
How it was run: (§2)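 Pots were flooded to 3 cm above the soil surface at treatment, compound applied directly to the paddy water, and that depth held throughout. Plants were kept in a greenhouse for 13 to 15 days, then visually rated against untreated controls.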

[8] = test system: sedge, umbrella (small-flower umbrella sedge, Cyperus difformis); experiment: Test B flooded paddy test, plant response rating; conditions: 250 g ai/ha, Flood, scale of 0 to 100 where 0 is no effect and 100 is complete control, 13 to 15 days
How it was run: as §2

[9] = test system: barnyardgrass (Echinochloa crus-galli); experiment: Test B flooded paddy test, plant response rating; conditions: 250 g ai/ha, Flood, scale of 0 to 100 where 0 is no effect and 100 is complete control, 13 to 15 days
How it was run: as §2

[10] = test system: ducksalad (Heteranthera limosa); experiment: Test B flooded paddy test, plant response rating; conditions: 250 g ai/ha, Flood, scale of 0 to 100 where 0 is no effect and 100 is complete control, 13 to 15 days
How it was run: as §2

corn (Zea mays) = experiment: Test A postemergence, visual injury rating; conditions: 0 to 100 scale, 0 is no effect, 100 is complete control, approximately 10 days
How it was run: as §1

[11] = test system: giant foxtail (Setaria faberii); experiment: Test A postemergence, visual injury rating; conditions: 0 to 100 scale, 0 is no effect, 100 is complete control, approximately 10 days
How it was run: as §1

kochia (Kochia scoparia) [12] = experiment: Test A postemergence, visual injury rating; conditions: 0 to 100 scale, 0 is no effect, 100 is complete control, approximately 10 days
How it was run: as §1

[13] = test system: blackgrass (Alopecurus myosuroides); experiment: Test A postemergence, visual injury rating; conditions: 0 to 100 scale, 0 is no effect, 100 is complete control, approximately 10 days
How it was run: as §1

[14] = test system: ragweed (common ragweed, Ambrosia elatior); experiment: Test A postemergence, visual injury rating; conditions: 0 to 100 scale, 0 is no effect, 100 is complete control, approximately 10 days
How it was run: as §1

[15] = test system: pigweed (Amaranthus retroflexus); experiment: Test A postemergence, visual injury rating; conditions: 0 to 100 scale, 0 is no effect, 100 is complete control, approximately 10 days
How it was run: as §1

[16] = test system: barnyardgrass (Echinochloa crus-galli); experiment: Test A postemergence, visual injury rating; conditions: 0 to 100 scale, 0 is no effect, 100 is complete control, approximately 10 days
How it was run: as §1

[17] = test system: galium (catchweed bedstraw, Galium aparine); experiment: Test A postemergence, visual injury rating; conditions: 0 to 100 scale, 0 is no effect, 100 is complete control, approximately 10 days
How it was run: as §1

[18] = test system: wheat (Triticum aestivum); experiment: Test A postemergence, visual injury rating; conditions: 0 to 100 scale, 0 is no effect, 100 is complete control, approximately 10 days
How it was run: as §1

[19] = test system: Italian ryegrass (Lolium multiflorum); experiment: Test A postemergence, visual injury rating; conditions: 0 to 100 scale, 0 is no effect, 100 is complete control, approximately 10 days
How it was run: as §1

[20] = 31 g ai/ha, 0 to 100 scale, 0 no effect, 100 complete control
[21] = 125 g ai/ha, 0 to 100 scale (0 no effect, 100 complete control)

Row | SMILES | Plant response rating, Foxtail, Giant [2, 20] | Plant response rating, Kochia (kochia (Kochia scoparia) [3]; [20]) | Plant response rating, Ragweed [4, 20] | Plant response rating, Pigweed [5, 20] | Plant response rating, Barnyardgrass [6] | Plant response rating, Ryegrass, Italian [7, 20] | Corn plant response rating (corn (Zea mays); 31 g ai/ha) | Corn plant response rating (corn (Zea mays); 125 g ai/ha) | Foxtail, Giant plant response rating ([11]; 31 g ai/ha) | Foxtail, Giant plant response rating ([11]; 125 g ai/ha) | Kochia plant response rating (kochia (Kochia scoparia) [12]; 31 g ai/ha) | Kochia plant response rating (kochia (Kochia scoparia) [12]; 125 g ai/ha) | Blackgrass plant response rating ([13]; 31 g ai/ha) | Blackgrass plant response rating ([13]; 125 g ai/ha) | Ragweed plant response rating ([14]; 31 g ai/ha) | Ragweed plant response rating ([14]; 125 g ai/ha) | Pigweed plant response rating ([15]; 31 g ai/ha) | Pigweed plant response rating ([15]; 125 g ai/ha) | Barnyardgrass plant response rating ([16]; 31 g ai/ha) | Barnyardgrass plant response rating ([16]; 125 g ai/ha) | further results
1 | FC(F)(F)CCCc1c(Br)cccc1Oc1ncc(Cl)cn1 [Compound 89] | 10 | 10 | 0 | 10 | 20 | 0 | 10 | 20 | 20 | 50 | 80 | 90 | 20 | 60 | 10 | 10 | 90 | 90 | 30 | 90 | Plant response rating, Ragweed ([1]; 125 g ai/ha, scale of 0 to 100): 50; Plant response rating, Ragweed ([1]; 31 g ai/ha, scale 0 to 100): 0; Plant response rating, Ragweed ([1]; 62 g ai/ha, scale 0 to 100): 5; Foxtail, Giant plant response rating [2, 21]: 50; Kochia plant response rating (kochia (Kochia scoparia) [3]; [21]): 50; Ragweed plant response rating [4, 21]: 0; Pigweed plant response rating [5, 21]: 100; Barnyardgrass plant response rating [6, 21]: 90; Ryegrass, Italian plant response rating [7, 21]: 20; Plant response rating, Rice (rice (Oryza sativa)): 40; Plant response rating, Sedge, Umbrella [8]: 95; Plant response rating, Barnyardgrass [9]: 40; Plant response rating, Ducksalad [10]: 95; Galium plant response rating ([17]; 31 g ai/ha): 30; Galium plant response rating ([17]; 125 g ai/ha): 80; Wheat plant response rating ([18]; 31 g ai/ha): 0; Wheat plant response rating ([18]; 125 g ai/ha): 20; Ryegrass, Italian plant response rating ([19]; 31 g ai/ha): 10; Ryegrass, Italian plant response rating ([19]; 125 g ai/ha): 30
2 | O=C(CCC(F)(F)F)c1c(Br)cccc1Oc1ncc(Cl)cn1 [Compound 92] | 100 | 90 | 0 | 100 | 70 | 30 | 10 | 40 | 50 | 100 | 100 | 100 | 10 | 50 | 0 | 20 | 100 | 100 | 40 | 100 | Plant response rating, Ragweed ([1]; 125 g ai/ha, scale of 0 to 100): 60; Plant response rating, Ragweed ([1]; 31 g ai/ha, scale 0 to 100): 55; Plant response rating, Ragweed ([1]; 62 g ai/ha, scale 0 to 100): 60; Foxtail, Giant plant response rating [2, 21]: 100; Kochia plant response rating (kochia (Kochia scoparia) [3]; [21]): 90; Ragweed plant response rating [4, 21]: 0; Pigweed plant response rating [5, 21]: 100; Barnyardgrass plant response rating [6, 21]: 100; Ryegrass, Italian plant response rating [7, 21]: 80; Plant response rating, Rice (rice (Oryza sativa)): 0; Plant response rating, Sedge, Umbrella [8]: 100; Plant response rating, Barnyardgrass [9]: 25; Plant response rating, Ducksalad [10]: 100; Galium plant response rating ([17]; 31 g ai/ha): 90; Galium plant response rating ([17]; 125 g ai/ha): 100; Wheat plant response rating ([18]; 31 g ai/ha): 0; Wheat plant response rating ([18]; 125 g ai/ha): 20; Ryegrass, Italian plant response rating ([19]; 31 g ai/ha): 0; Ryegrass, Italian plant response rating ([19]; 125 g ai/ha): 50
3 | O=C(CCC(F)(F)F)c1c(Cl)cccc1Oc1ncc(Cl)cn1 [Compound 107, 1-[2-chloro-6-[(5-chloro-2-pyrimidinyl)oxy]phenyl]-4,4,4-trifluoro-1-butanone] | 100 | 90 | 0 | 100 | 90 | 30 | 30 | 60 | 70 | 90 | 90 | 90 | 50 | 90 | 20 | 30 | 100 | 100 | 40 | 90 | pest or weed control at 125 g/ha ([1]; Ambrosia artemisiifolia, pre-emergence, 125 g ai/ha, scale of 0 to 100): 50%; pest or weed control at 31 g/ha ([1]; Ambrosia artemisiifolia, pre-emergence, 31 g ai/ha, scale 0 to 100): 30%; pest or weed control at 62 g/ha ([1]; Ambrosia artemisiifolia, pre-emergence, 62 g ai/ha, scale 0 to 100): 50%; Plant response rating, Foxtail, Giant [2, 21]: 100; Plant response rating, Kochia (kochia (Kochia scoparia) [3]; [21]): 100; Plant response rating, Ragweed [4, 21]: 20; Plant response rating, Pigweed [5, 21]: 100; pest or weed control at 125 g/ha ([6]; Echinochloa crus-galli, pre-emergence, 240 h, 125 g ai/ha, 0 to 100 scale (0 no effect, 100 complete control), read-out: Barnyardgrass plant response rating): 100%; Plant response rating, Ryegrass, Italian [7, 21]: 80; plant injury at 250 g/ha (rice (Oryza sativa); Oryza sativa, 312 h): 35%; pest or weed control at 250 g/ha ([8]; Cyperus difformis, 312 h): 95%; pest or weed control at 250 g/ha ([9]; Echinochloa crus-galli, 312 h): 50%; pest or weed control at 250 g/ha ([10]; Heteranthera limosa, 312 h): 95%; Galium plant response rating ([17]; 31 g ai/ha): 90; Galium plant response rating ([17]; 125 g ai/ha): 90; Wheat plant response rating ([18]; 31 g ai/ha): 0; Wheat plant response rating ([18]; 125 g ai/ha): 30; Ryegrass, Italian plant response rating ([19]; 31 g ai/ha): 20; Ryegrass, Italian plant response rating ([19]; 125 g ai/ha): 80
